Source: PubChem BioAssay (NCI)
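At the GI50, growth is halved. TGI marks complete inhibition of growth.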

What was measured:
Assay in all cases: NCI anticancer screen, dose series, 384-well format
HCC-2998 colon = tested on: HCC-2998 colon
MCF7 breast = tested on: MCF7 breast
LOX IMVI melanoma = tested on: LOX IMVI melanoma
SK-MEL-5 melanoma = tested on: SK-MEL-5 melanoma
HT29 colon = tested on: HT29 colon
MALME-3M melanoma = tested on: MALME-3M melanoma
K-562 leukemia = tested on: K-562 leukemia
SW-620 colon = tested on: SW-620 colon
RPMI-8226 leukemia = tested on: RPMI-8226 leukemia
NCI-H226 lung = tested on: NCI-H226 lung
T-47D breast = tested on: T-47D breast
786-0 renal = tested on: 786-0 renal
SF-268 CNS = tested on: SF-268 CNS
BT-549 breast = tested on: BT-549 breast
MDA-MB-468 breast = tested on: MDA-MB-468 breast
KM12 colon = tested on: KM12 colon
U251 glioblastoma = tested on: U251 glioblastoma
SNB-19 CNS = tested on: SNB-19 CNS
NCI-H522 lung = tested on: NCI-H522 lung
HL-60(TB) leukemia = tested on: HL-60(TB) leukemia
SF-539 CNS = tested on: SF-539 CNS
OVCAR-5 ovarian = tested on: OVCAR-5 ovarian
OVCAR-4 ovarian = tested on: OVCAR-4 ovarian
IGROV1 ovarian = tested on: IGROV1 ovarian
SNB-75 CNS = tested on: SNB-75 CNS
M14 melanoma = tested on: M14 melanoma
HCT-15 colon = tested on: HCT-15 colon
HOP-92 NSCLC = tested on: HOP-92 NSCLC
SR leukemia = tested on: SR leukemia
NCI-H23 lung = tested on: NCI-H23 lung
MDA-MB-231 breast = tested on: MDA-MB-231 breast
EKVX NSCLC = tested on: EKVX NSCLC
NCI/ADR-RES ovarian = tested on: NCI/ADR-RES ovarian
UACC-62 melanoma = tested on: UACC-62 melanoma
OVCAR-3 ovarian = tested on: OVCAR-3 ovarian
MDA-MB-435 melanoma = tested on: MDA-MB-435 melanoma
SK-MEL-28 melanoma = tested on: SK-MEL-28 melanoma
PC-3 prostate = tested on: PC-3 prostate
NCI-H322M lung = tested on: NCI-H322M lung
HOP-62 NSCLC = tested on: HOP-62 NSCLC
TK-10 renal = tested on: TK-10 renal
RXF 393 renal = tested on: RXF 393 renal
MOLT-4 leukemia = tested on: MOLT-4 leukemia
SK-OV-3 ovarian = tested on: SK-OV-3 ovarian
ACHN renal = tested on: ACHN renal
OVCAR-8 ovarian = tested on: OVCAR-8 ovarian
SN12C renal = tested on: SN12C renal
A498 renal = tested on: A498 renal
A549 NSCLC = tested on: A549 NSCLC
UO-31 renal = tested on: UO-31 renal
CAKI-1 renal = tested on: CAKI-1 renal
HS 578T breast = tested on: HS 578T breast
DU-145 prostate = tested on: DU-145 prostate
SF-295 CNS = tested on: SF-295 CNS
UACC-257 melanoma = tested on: UACC-257 melanoma
COLO 205 colon = tested on: COLO 205 colon
NCI-H460 NSCLC = tested on: NCI-H460 NSCLC

`C[C@@]1(C(=O)Nc2ccc(F)nc2)CCCN1c1nc(Nc2cc(C3CC3)[nH]n2)c2cccn2n1` showed a GI50 (HCC-2998 colon) of 10.6 µM, a TGI (HCC-2998 colon) of 22.7 µM and a GI50 (MCF7 breast) of 0.0388 µM. For the same compound, the TGI (MCF7 breast) was 12.4 µM, the GI50 (LOX IMVI melanoma) was 1.93 µM and the TGI (LOX IMVI melanoma) was 13 µM. The GI50 (SK-MEL-5 melanoma) was 1.78 µM, the TGI (SK-MEL-5 melanoma) was 15.9 µM and the GI50 (HT29 colon) was < 0.01 µM. The TGI (HT29 colon) was 10.5 µM, the GI50 (MALME-3M melanoma) was 0.356 µM and the TGI (MALME-3M melanoma) was 16.6 µM. For the same compound, the GI50 (K-562 leukemia) was 3.81 µM, the TGI (K-562 leukemia) was 15.4 µM and the GI50 (SW-620 colon) was 0.644 µM. The TGI (SW-620 colon) was 14.4 µM, the GI50 (RPMI-8226 leukemia) was 0.201 µM and the TGI (RPMI-8226 leukemia) was 0.491 µM. The GI50 (NCI-H226 lung) was 0.557 µM, the TGI (NCI-H226 lung) was 7.05 µM and the GI50 (T-47D breast) was 0.651 µM. For the same compound, the TGI (T-47D breast) was 14.3 µM, the GI50 ([…]-0 renal) was 2.12 µM and the TGI (786-0 renal) was 11.3 µM. For the same compound, the GI50 (SF-268 CNS) was 1.44 µM, the TGI (SF-268 CNS) was 6.55 µM and the GI50 (BT-549 breast) was 1.71 µM. The TGI (BT-549 breast) was 7.62 µM, the GI50 (MDA-MB-468 breast) was 0.246 µM and the TGI (MDA-MB-468 breast) was 0.561 µM. For the same compound, the GI50 (KM12 colon) was 0.03 µM, the TGI (KM12 colon) was 0.204 µM and the GI50 (U251 glioblastoma) was 5.48 µM. It also gave a TGI (U251 glioblastoma) of 19.4 µM, a GI50 (SNB-19 CNS) of 8.33 µM and a TGI (SNB-19 CNS) of 29.3 µM. The GI50 (NCI-H522 lung) was 0.864 µM, the TGI (NCI-H522 lung) was 7.46 µM and the GI50 (HL-60(TB) leukemia) was < 0.01 µM. It also gave a TGI (HL-60(TB) leukemia) of 0.126 µM, a GI50 (SF-539 CNS) of 1.91 µM and a TGI (SF-539 CNS) of 11 µM. It also gave a GI50 (OVCAR-5 ovarian) of 1.5 µM, a TGI (OVCAR-5 ovarian) of 8.62 µM and a GI50 (OVCAR-4 ovarian) of 0.935 µM. It also gave a TGI (OVCAR-4 ovarian) of 4.21 µM, a GI50 (IGROV1 ovarian) of 1.72 µM and a TGI (IGROV1 ovarian) of 7.19 µM. It also gave a GI50 (SNB-75 CNS) of 1.14 µM, a TGI (SNB-75 CNS) of 3.57 µM and a GI50 (M14 melanoma) of 1.7 µM. It also gave a TGI (M14 melanoma) of 16.8 µM, a GI50 (HCT-15 colon) of 0.703 µM and a TGI (HCT-15 colon) of 12.2 µM. The GI50 (HOP-92 NSCLC) was 0.289 µM, the TGI (HOP-92 NSCLC) was 2.68 µM and the GI50 (SR leukemia) was 0.18 µM. The TGI (SR leukemia) was 0.336 µM, the GI50 (NCI-H23 lung) was 0.223 µM and the TGI (NCI-H23 lung) was 3.87 µM. For the same compound, the GI50 (MDA-MB-231 breast) was 1.58 µM, the TGI (MDA-MB-231 breast) was 12.5 µM and the GI50 (EKVX NSCLC) was 0.681 µM. The TGI (EKVX NSCLC) was 9.59 µM, the GI50 (NCI/ADR-RES ovarian) was 2.36 µM and the TGI (NCI/ADR-RES ovarian) was 10.7 µM. For the same compound, the GI50 (UACC-62 melanoma) was 1.75 µM, the TGI (UACC-62 melanoma) was 15.7 µM and the GI50 (OVCAR-3 ovarian) was 0.842 µM. The TGI (OVCAR-3 ovarian) was 9.82 µM, the GI50 (MDA-MB-435 melanoma) was 14.4 µM and the TGI (MDA-MB-435 melanoma) was 27.6 µM. The GI50 (SK-MEL-28 melanoma) was 10.6 µM, the TGI (SK-MEL-28 melanoma) was 22.7 µM and the GI50 (PC-3 prostate) was 2.67 µM. The TGI (PC-3 prostate) was 14.4 µM, the GI50 (NCI-H322M lung) was 3.87 µM and the TGI (NCI-H322M lung) was 20.1 µM. The GI50 (HOP-62 NSCLC) was 1.87 µM, the TGI (HOP-62 NSCLC) was 13.2 µM and the GI50 (TK-10 renal) was 2.49 µM. The TGI (TK-10 renal) was 20.1 µM, the GI50 (RXF 393 renal) was 2.25 µM and the TGI (RXF 393 renal) was 12.7 µM. The GI50 (MOLT-4 leukemia) was 0.224 µM, the TGI (MOLT-4 leukemia) was 0.439 µM and the GI50 (SK-OV-3 ovarian) was 2.69 µM. For the same compound, the TGI (SK-OV-3 ovarian) was 14 µM, the GI50 (ACHN renal) was 2.43 µM and the TGI (ACHN renal) was 16 µM. For the same compound, the GI50 (OVCAR-8 ovarian) was 4.09 µM, the TGI (OVCAR-8 ovarian) was 18.7 µM and the GI50 (SN12C renal) was 2.07 µM. For the same compound, the TGI (SN12C renal) was 6.96 µM, the GI50 (A498 renal) was 1.72 µM and the TGI (A498 renal) was 17.1 µM. For the same compound, the GI50 (A549 NSCLC) was 0.63 µM, the TGI (A549 NSCLC) was 15.4 µM and the GI50 (UO-31 renal) was 3.75 µM. It also gave a TGI (UO-31 renal) of 18.2 µM, a GI50 (CAKI-1 renal) of 1.3 µM and a TGI (CAKI-1 renal) of 5.28 µM. For the same compound, the GI50 (HS 578T breast) was 1.51 µM, the TGI (HS 578T breast) was 3.8 µM and the GI50 (DU-145 prostate) was 0.995 µM. For the same compound, the TGI (DU-145 prostate) was 12.5 µM, the GI50 (SF-295 CNS) was 0.837 µM and the TGI (SF-295 CNS) was 4.19 µM. The GI50 (UACC-257 melanoma) was 0.694 µM, the TGI (UACC-257 melanoma) was 16.4 µM and the GI50 (COLO 205 colon) was < 0.01 µM. For the same compound, the TGI (COLO 205 colon) was 0.189 µM, the GI50 (NCI-H460 NSCLC) was 0.239 µM and the TGI (NCI-H460 NSCLC) was 1.17 µM.
